Laboratory results as given in US5616604A, “Aminopyrrolizinone analogues for anti-inflammation and analgesia (II)” (priority 1996, dated 1997).

Tests used:
[1] = system: mouse writhing induced by acetic acid; experiment: inhibition of acetic acid-induced writhe in mice; type: in vivo; details: oral, female mice, dose/LD50: SFZ-47 1/15, SFZ-58 1/10, ibuprofen 1/5, indomethacin 1/4; for Numb. of writhing (x ± SD): 0.7% acetic acid i.p. 1 h later, 20 min observation, N.S. 17.0 ± 6.8; for Rate of inhibition (%): writhing vs normal saline
Protocol: The influence of SFZ-47, 58 on inhibition of acetic acid-induces writhe.
SFZ-47 and SFZ-58 were suspended in 0.5% carboxymethylcellulose (CMC) and administered per os. to female mice of weight 18-24 g. 1 hour later, 0.2 ml of a 0.7% solution of acetic acid was injected to mouse by intraperironeally. The animals were observed during the next 20 min. for writhe.

[2] = system: gastric mucosa of rats; experiment: effects on gastric mucosa of rats (ulcer index); type: in vivo, rat; details: n = 5, SFZ-47 400 mg/kg, SFZ-58 300 mg/kg, ibuprofen 200 mg/kg, indomethacin 10 mg/kg
Description: Effects of SFZ-47 and SFZ-58 on gastric mucosa of rats

[3] = system: carrageenin-induced paw edema; experiment: inhibition of carrageenin-induced paw edema in rat; type: in vivo; details: oral, male rats, dose/LD50: SFZ-47 1/15, SFZ-58 1/10, ibuprofen 1/5, indomethacin 1/4; for carrageenin-induced paw edema, 1 hour: N.S. 0.40 ± 0.00; for carrageenin-induced paw edema, 2 hours: N.S. 0.78 ± 0.09; for carrageenin-induced paw edema, 3 hours: N.S. 0.75 ± 0.09; for carrageenin-induced paw edema, 4 hours: N.S. 0.75 ± 0.05; for carrageenin-induced paw edema, 5 hours: N.S. 0.76 ± 0.09
Protocol: The influence of SFZ-47, 58 on inhibition of Carrageenin-Induced Paw Edema in Rat.
The test agent was administered by oral liquid to male rats of weight 140-180 g. 0.05 ml of 1% carrageenin injected into the pad of the right hind paw 1 hour later. The perimeter of the rat ankles were measured each hour after compound administration.

[4] = system: splanchnic vascular bed; details: prior art, in words; cited from earlier work
[5] = system: cerebral circulation; details: prior art, cited from earlier work

SMILES	Numb. of writhing (x ± SD) [1]	Rate of inhibition (%) [1]	Ulcer index [2]	carrageenin-induced paw edema, 1 hour [3]	carrageenin-induced paw edema, 2 hours [3]	carrageenin-induced paw edema, 3 hours [3]	carrageenin-induced paw edema, 4 hours [3]	carrageenin-induced paw edema, 5 hours [3]	blood flow in the splanchnic vascular bed [4]	cerebral blood flow response to hypercapnia ([5]; in words)	decrease of cerebral blood flow [5]
CC(C)Cc1ccc(C(C)C(=O)O)cc1 (stereo not shown) [Ibuprofen]	4.3 ± 3.9	75%	13.3 ± 4.2 mm^2	0.29 ± 0.06	0.41 ± 0.11	0.52 ± 0.00	0.51 ± 0.00	0.47 ± 0.10			
COc1ccc2c(c1)c(CC(=O)O)c(C)n2C(=O)c1ccc(Cl)cc1 [Indomethacin]	2.7 ± 1.5	84%	14.0 ± 6.9 mm^2	0.21 ± 0.18	0.33 ± 0.08	0.45 ± 0.08	0.43 ± 0.13	0.43 ± 0.13	diminishes blood flow in the splanchnic vascular bed	abolishing cerebral blood flow response to hypercapnia	25-35%
